From patent US20240228504A1, “SUBSTITUTED TRICYCLIC AMIDES, ANALOGUES THEREOF, AND METHODS USING SAME” (Arbutus Biopharma Corporation, priority 2020, published 2024)

These molecules were tested on HBV rcDNA in HepDE19 cells (assay: HepDE19 assay with bDNA quantitation of HBV rcDNA). Details: HepDE19 assay, inhibition of rcDNA formation, bDNA quantitation; read-out: DE-19bDNA EC50.
Assay type: cell-based, hepatitis B virus

| Structure (SMILES) | EC50 [nM] |
| --- | --- |
| CN(C(=O)c1cc2ccccc2[nH]1)C1COCc2[nH]c(=O)c3cc(F)c(F)cc3c21 (single isomer, unassigned) [Compound 21, N-(8,9-Difluoro-6-oxo-1,4,5,6-tetrahydro-2H-pyrano[3,4-c]isoquinolin-1-yl)-N-methyl-1H-indole-2-carboxamide] | 3300 |
| CN1Cc2[nH]c(=O)c3cc(F)c(F)cc3c2C(N(C)C(=O)c2cc3ccccc3[nH]2)C1 (single isomer, unassigned) [Compound 63, N-(8,9-Difluoro-3-methyl-6-oxo-1,2,3,4,5,6-hexahydrobenzo[c][1,7]naphthyridin-1-yl)-N-methyl-1H-indole-2-carboxamide] | 170 |
| CN(C(=O)c1cc2c(F)cccn2c1)C1COCc2[nH]c(=O)c3cc(F)c(F)cc3c21 (single isomer, unassigned) [Compound 9, N-(8,9-Difluoro-6-oxo-1,4,5,6-tetrahydro-2H-pyrano[3,4-c]isoquinolin-1-yl)-8-fluoro-N-methylindolizine-2-carboxamide] | 3300 |
| CN(C(=O)c1cc2ccc(F)cc2[nH]1)C1COCc2[nH]c(=O)c3cc(F)ccc3c21 (single isomer, unassigned) [Compound 32, 6-Fluoro-N-(8-fluoro-6-oxo-1,4,5,6-tetrahydro-2H-pyrano[3,4-c]isoquinolin-1-yl)-N-methyl-1H-indole-2-carboxamide] | 20 |
| CN(C(=O)c1cc2c(F)cccn2c1)C1CSCc2[nH]c(=O)c3cc(F)c(F)cc3c21 (single isomer, unassigned) [Compound 104, N-(8,9-Difluoro-6-oxo-1,4,5,6-tetrahydro-2H-thiopyrano[3,4-c]isoquinolin-1-yl)-8-fluoro-N-methylindolizine-2-carboxamide] | 10 |
| CN(C(=O)c1cc2ccc(F)cn2c1)C1CNCc2[nH]c(=O)c3cc(F)c(F)cc3c21 (single isomer, unassigned) [Compound 223, N-(8,9-Difluoro-6-oxo-1,2,3,4,5,6-hexahydrobenzo[c][1,7]naphthyridin-1-yl)-6-fluoro-N-methylindolizine-2-carboxamide] | 30 |
| CN(C(=O)c1cc(F)c(Cl)c(F)c1)C1COCc2[nH]c(=O)c3cc(F)ccc3c21 (single isomer, unassigned) [Compound 174, 4-Chloro-3,5-difluoro-N-(8-fluoro-6-oxo-2,4,5,6-tetrahydro-1H-pyrano[3,4-c]isoquinolin-1-yl)-N-methylbenzamide] | 5100 |

Same assay, conditions: Hepatitis B virus, HepDE19, HepDE19 assay, inhibition of rcDNA formation, bDNA quantitation; read-out: DE-19bDNA EC50

| Structure (SMILES) | EC50 [nM] |
| --- | --- |
| CN(C(=O)c1ccc(-c2ccccc2F)cc1)[C@@H]1COCc2[nH]c(=O)c3cc(F)c(F)cc3c21 [Compound 285, (S)-N-(8,9-Difluoro-6-oxo-1,4,5,6-tetrahydro-2H-pyrano[3,4-c]isoquinolin-1-yl)-2′-fluoro-N-methyl-[1,1′-biphenyl]-4-carboxamide] | 19700 |
| CCN(C(=O)c1cn2cc(Cl)ccc2n1)[C@@H]1COCc2[nH]c(=O)c3cc(F)ccc3c21 [Compound 53, (S)-6-Chloro-N-ethyl-N-(8-fluoro-6-oxo-1,4,5,6-tetrahydro-2H-pyrano[3,4-c]isoquinolin-1-yl)imidazo[1,2-a]pyridine-2-carboxamide] | 2500 |
| CN(C(=O)c1ccc(C(C)(C)O)cc1)[C@@H]1COCc2[nH]c(=O)c3cc(F)c(F)cc3c21 [Compound 154, (S)-N-(8,9-Difluoro-6-oxo-1,4,5,6-tetrahydro-2H-pyrano[3,4-c]isoquinolin-1-yl)-4-(2-hydroxypropan-2-yl)-N-methylbenzamide] | 1050 |
| CN(C(=O)c1cncc(F)c1)[C@@H]1COCc2[nH]c(=O)c3cc(F)c(F)cc3c21 [Compound 83, (S)-N-(8,9-Difluoro-6-oxo-1,4,5,6-tetrahydro-2H-pyrano[3,4-c]isoquinolin-1-yl)-5-fluoro-N-methylnicotinamide] | 7000 |
| CN(C(=O)c1ccc2c(c1)CCC2)[C@@H]1COCc2[nH]c(=O)c3cc(F)c(F)cc3c21 [Compound 408, (S)-N-(8,9-Difluoro-6-oxo-1,4,5,6-tetrahydro-2H-pyrano[3,4-c]isoquinolin-1-yl)-N-methyl-2,3-dihydro-1H-indene-5-carboxamide] | 40 |
| CN(C(=O)c1ccc2c(Cl)n(C(F)F)nc2c1)[C@@H]1COCc2[nH]c(=O)c3cc(F)c(F)cc3c21 [Compound 358, (S)-3-Chloro-N-(8,9-difluoro-6-oxo-1,4,5,6-tetrahydro-2H-pyrano[3,4-c]isoquinolin-1-yl)-2-(difluoromethyl)-N-methyl-2H-indazole-6-carboxamide] | 680 |
| CN(C(=O)c1cc2c(C(F)F)cc(F)cc2[nH]1)[C@@H]1CCCc2[nH]c(=O)c3cc(F)ccc3c21 [Compound 493, (R)-4-(difluoromethyl)-6-fluoro-N-(8-fluoro-6-oxo-1,2,3,4,5,6-hexahydrophenanthridin-1-y1)-N-methyl-1H-indole-2-carboxamide] | 10 |
